Consider 13 molecules from ChEMBL document CHEMBL1201862, “PubChem BioAssay data set” (2004).

Some test systems named below: COLO 205; NCI-H23; HOP-92; NCI-H522; CAKI-1; RPMI-8226; TK-10; NCI-H226; SK-MEL-2; SF-295; SR; SF-539; HT-29; LOX IMVI; HCT-116; A498; M14.
Holding throughout (test): growth of human tumour cells (NCI), 48 h

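In this assay, cells in 96-well plates receive the compound at five concentrations for 48 hours. Endpoints are linearly interpolated between the surrounding concentrations. Here, GI50 denotes the concentration required for 50% inhibition of growth.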 Active and inactive are the calls of the source. Rule as the data show it: active = GI50 up to about 1.1 µM and inactive = higher.

Turning to `COc1ccc(/C=C/COC(C)=O)cc1OC`, the GI50 was > 100 µM (inactive) in the assay with COLO 205; > 100 µM (inactive) in the assay with NCI-H23; 86.5 µM (inactive) with HOP-92; > 100 µM (inactive) in the assay with NCI-H522; > 100 µM (inactive) with CAKI-1; > 100 µM (inactive) in the assay on RPMI-8226. The GI50 in the assay on TK-10, with NCI-H226, with SK-MEL-2, in the assay with SF-295, in the assay with SR and in the assay with SF-539 was > 100 µM (inactive) throughout. In addition, in the assay with HT-29, the GI50 was > 100 µM (inactive).

`O=C1CCCC(O)=C1SC1=C(O)CCCC1=O`: the GI50 in the assay on COLO 205 is > 100 µM (inactive); with NCI-H23 it was > 100 µM (inactive); with HOP-92 it was > 100 µM (inactive); with NCI-H522, > 100 µM (inactive); with LOX IMVI, > 100 µM (inactive); with HCT-116 it was 76 µM (inactive). Further, the GI50 was 94.2 µM (inactive) in the assay on CAKI-1; > 100 µM (inactive) in the assay with RPMI-8226; > 100 µM (inactive) in the assay with TK-10; > 100 µM (inactive) with NCI-H226; > 100 µM (inactive) with SK-MEL-2; 39.2 µM (inactive) with A498. The GI50 in the assay on SF-295 is > 100 µM (inactive); with M14 it was 56.4 µM (inactive); in the assay on SF-539, > 100 µM (inactive); in the assay with HT-29, 72.8 µM (inactive).

In the case of `N#CC(NNC(=O)c1ccccc1O)c1ccccc1O` (centres undefined), the GI50 in the assay with COLO 205 was 33.5 µM (inactive); in the assay with NCI-H23 it was 2.06 µM (inactive); in the assay on HOP-92, 13.6 µM (inactive); in the assay with NCI-H522, 8.87 µM (inactive); with LOX IMVI it was 3.78 µM (inactive); with HCT-116, 4.29 µM (inactive). Moreover, the GI50 in the assay on CAKI-1 was 3.27 µM (inactive); with RPMI-8226, 4.03 µM (inactive); in the assay with TK-10, 68.9 µM (inactive); in the assay with NCI-H226 it was 3.18 µM (inactive); with SK-MEL-2, 31.3 µM (inactive); in the assay on SF-295, 9.23 µM (inactive). Besides, the GI50 in the assay with SR is 0.472 µM (active); in the assay with M14, 5.65 µM (inactive); with SF-539, 4.06 µM (inactive); in the assay on HT-29, 41.4 µM (inactive).

Take `CC(C)(C)c1ccc2c(c1)S(=O)(=O)Nc1cccc(c1)NS(=O)(=O)c1cc(C(C)(C)C)ccc1OCCOCCO2`: the GI50 in the assay on COLO 205 was > 100 µM (inactive); with NCI-H23, > 100 µM (inactive); in the assay on HOP-92, 50.6 µM (inactive); in the assay with LOX IMVI, > 100 µM (inactive); in the assay with HCT-116 it was > 100 µM (inactive); in the assay on CAKI-1, > 100 µM (inactive). Also, the GI50 with RPMI-8226 was 23.6 µM (inactive); in the assay on TK-10, > 100 µM (inactive); in the assay with NCI-H226 it was > 100 µM (inactive); in the assay on SK-MEL-2, > 100 µM (inactive); in the assay with A498 it was > 100 µM (inactive); with SF-295, > 100 µM (inactive). In addition, the GI50 in the assay on M14, in the assay on SF-539 and in the assay on HT-29 was > 100 µM (inactive) in each case.

Turning to `O=[N+]([O-])c1cccc(-c2oc(/C=N/c3ccccc3)c([N+](=O)[O-])c2-c2cccc([N+](=O)[O-])c2)c1`, the GI50 in the assay with COLO 205, in the assay with NCI-H23, in the assay with HOP-92, with NCI-H522, in the assay on LOX IMVI and with HCT-116 was > 100 µM (inactive) in each case. The GI50 in the assay with RPMI-8226, in the assay with TK-10, in the assay on NCI-H226, with SK-MEL-2, with A498 and in the assay on SF-295 was > 100 µM (inactive) throughout. For the same molecule, the GI50 in the assay on M14, with SF-539 and in the assay with HT-29 was > 100 µM (inactive) in each case.

With `Cc1ccc(S(=O)(=O)N/N=C(\c2nc3ccc(Cl)cc3[nH]c2=O)C(O)c2ccco2)cc1` (centres undefined), the GI50 with COLO 205, in the assay with NCI-H23, in the assay on HOP-92, in the assay on LOX IMVI, in the assay on HCT-116 and with CAKI-1 was > 100 µM (inactive) throughout. The GI50 in the assay on TK-10, in the assay on NCI-H226, in the assay on SK-MEL-2, with A498, in the assay on SF-295 and with M14 was > 100 µM (inactive) each time. Moreover, the GI50 with SF-539 and in the assay on HT-29 was > 100 µM (inactive) in each case.

As for `C#CCn1c(=O)[nH]c(=O)c2cccnc21`, the GI50 with COLO 205, with NCI-H23, in the assay with HOP-92, in the assay on NCI-H522, with LOX IMVI and in the assay with HCT-116 was > 100 µM (inactive) each time. The GI50 with CAKI-1, in the assay with RPMI-8226, in the assay with TK-10, in the assay on NCI-H226, in the assay on SK-MEL-2 and in the assay with SF-295 was > 100 µM (inactive) throughout. Further, the GI50 in the assay with SR and in the assay with M14 was > 100 µM (inactive) in each case.

`O=C(CCC/C(CC(=O)c1ccc(Br)cc1)=N\O)Nc1ccccc1`: the GI50 with COLO 205 was > 100 µM (inactive); in the assay on NCI-H23 it was > 100 µM (inactive); in the assay with HOP-92, 73.3 µM (inactive); in the assay on LOX IMVI, > 100 µM (inactive); with HCT-116 it was > 100 µM (inactive); in the assay on RPMI-8226, 10.7 µM (inactive). Moreover, the GI50 is > 100 µM (inactive) with TK-10; > 100 µM (inactive) in the assay on NCI-H226; > 100 µM (inactive) in the assay with SK-MEL-2; > 100 µM (inactive) with SF-295; > 100 µM (inactive) in the assay with M14; 57.4 µM (inactive) with HT-29.

On to `O=C(O)C(CS)Nc1c2ccccc2nc2ccccc12` (centres undefined), for which the GI50 with COLO 205 was 37.7 µM (inactive); with NCI-H23, 91.8 µM (inactive); in the assay on HOP-92 it was 49.7 µM (inactive); in the assay with NCI-H522 it was 29.1 µM (inactive); with LOX IMVI, 40.6 µM (inactive); in the assay on HCT-116 it was > 10 µM (inactive). In addition, the GI50 with CAKI-1 is 44.7 µM (inactive); in the assay on RPMI-8226, 48.2 µM (inactive); in the assay with TK-10, 35.6 µM (inactive); in the assay on NCI-H226, > 100 µM (inactive); in the assay on SK-MEL-2, 83.9 µM (inactive); in the assay on SF-295 it was 56.9 µM (inactive). Also, the GI50 in the assay on SR was 36.3 µM (inactive); in the assay with M14, 43.7 µM (inactive); in the assay on SF-539, 50 µM (inactive); in the assay with HT-29, 46.6 µM (inactive).

`CC#CCC1CCC(OCC)=CC1=O` (centres undefined): the GI50 in the assay with COLO 205, in the assay with NCI-H23, with HOP-92, with NCI-H522, with LOX IMVI and with HCT-116 was > 100 µM (inactive) throughout. In addition, the GI50 with CAKI-1 is > 100 µM (inactive); in the assay with RPMI-8226, > 100 µM (inactive); in the assay with TK-10, > 100 µM (inactive); in the assay on NCI-H226, 92.7 µM (inactive); with SK-MEL-2, > 100 µM (inactive); in the assay on SF-295, > 100 µM (inactive). The GI50 in the assay on SR, in the assay with M14, in the assay with SF-539 and in the assay with HT-29 was > 100 µM (inactive) each time.

Consider `COc1ccc(Br)c(C(=O)N2CCc3ccccc32)c1N`, for which the GI50 was 66.1 µM (inactive) in the assay with COLO 205; 44.9 µM (inactive) in the assay with NCI-H23; > 100 µM (inactive) with HOP-92; 16.7 µM (inactive) in the assay with NCI-H522; 93.1 µM (inactive) in the assay on LOX IMVI; 42.2 µM (inactive) in the assay on HCT-116. In addition, the GI50 was 40.6 µM (inactive) with RPMI-8226; 42.9 µM (inactive) in the assay with TK-10; 58.6 µM (inactive) with NCI-H226; 25.1 µM (inactive) in the assay with SK-MEL-2; 46.2 µM (inactive) in the assay with SF-295; 20.3 µM (inactive) in the assay on SR. Also, the GI50 in the assay with M14 is 32.9 µM (inactive); in the assay with SF-539, 27.5 µM (inactive); in the assay with HT-29 it was 52 µM (inactive).

`CC(C)(C)C(=O)/C=C/c1ccc(Oc2ccccc2)cc1`: the GI50 with NCI-H23 is > 10 µM (inactive); with NCI-H522 it was 11.2 µM (inactive); with HCT-116, 12.1 µM (inactive); in the assay on RPMI-8226 it was 8.95 µM (inactive); in the assay with TK-10 it was 26.6 µM (inactive); in the assay with NCI-H226, 19.6 µM (inactive). For the same molecule, the GI50 in the assay on SK-MEL-2 is 16.7 µM (inactive); in the assay with A498 it was 14.5 µM (inactive); in the assay with SF-295, 24.8 µM (inactive); in the assay on M14 it was 15.3 µM (inactive); in the assay on SF-539, > 10 µM (inactive); in the assay on HT-29, 8.51 µM (inactive).

Regarding `CSc1cccc(-n2c3nc(=O)n(C)c(=O)c-3nc3ccccc32)c1`, the GI50 with COLO 205 was 2.94 µM (inactive); with NCI-H23, 4.35 µM (inactive); in the assay with HOP-92, 9.33 µM (inactive); in the assay on NCI-H522, 14.7 µM (inactive); in the assay on HCT-116, 7.29 µM (inactive); in the assay on CAKI-1, 3.91 µM (inactive). Besides, the GI50 is 5.77 µM (inactive) in the assay on RPMI-8226; 21.8 µM (inactive) in the assay on TK-10; 11.8 µM (inactive) with NCI-H226; 13 µM (inactive) in the assay on SK-MEL-2; 12.6 µM (inactive) in the assay with A498; 10.8 µM (inactive) with SF-295. Moreover, the GI50 is 2.7 µM (inactive) in the assay on M14, 2.16 µM (inactive) in the assay on SF-539 and 2.51 µM (inactive) in the assay on HT-29.
